Data reported in patent US20260325464A1, “COMPOSITIONS FOR MODULATING THE EXPRESSION OF AQUAPORINS IN NEURODEGENERATIVE DISORDERS” (priority 2023, published 2026).
Marks after values point to notes of the source that are not given here.

What was measured:
Type in all cases: in vivo, rat
[1] = tested on: Parkinson's disease; experiment: Catalepsy test in rats with reserpine-induced Parkinson's disease; parameters: catalepsy score at 30 min / catalepsy score at 60 min / catalepsy score at 120 min: unit not given here; settings: 25 mg/kg, p.o. + Reserpine (4 mg/kg, s.c.), Mean ± SEM, n = 6
Description: (§1) The induction of Parkinson's disease and measurement of other parameters were done as per the reported protocol (Santos et al., Cognitive, motor and tyrosine hydroxylase temporal impairment in a model of parkinsonism induced by reserpine. Behav Brain Res. 2013; 253:68-77 and Shishehbore et al. A novel kinetic spectrophotometric method for the determination of dopamine in biological and pharmaceutical samples. J Chem. 2013; 2013:1-6). Induction of Parkinson's disease was done by administering Resperine, which inhibits the monoamine vesicular transporters, thus decreasing the levels of monoamine neurotransmitters in the brain. Following pretreatment for 14 days with Gingerenone A, the rat groups received subcutaneous injections of reserpine (4 mg/kg) for the final five days of the treatment regimen. Resperine (5 mg) was dissolved in 1 ml of 1% acetic acid and then diluted tenfold with distilled water to achieve a final concentration of 500 μg/ml. The normal control group received saline with 1% acetic acid […], administered from day 10 to day 14. Thirty minutes following the administration of reserpine on the 14th day, behavioural assessments were conducted using the Open Field test, Y Maze, and Catalepsy tests to evaluate changes. Rats administered with Carbidopa, a known drug for the management of Parkinson's disease was also used for comparison. Upon completion of the study, brains were harvested for biochemical analyses and histopathological studies. The experimental group is depicted in table 10.
NeuroMol Med. 202022(2):314-330. Catalepsy in rats' manifests as an unresponsiveness to external stimuli accompanied by muscle rigidity. During the catalepsy test, rats were positioned on a wooden bar elevated 3-9 cm above the surface, with their forelimbs resting on it after administration of reserpine. The time taken for the rats to correct their posture was recorded as an indicator of catalepsy. Catalepsy ceased either when the rats climbed up the bar or when their forelimbs touched the floor. Observations were made at 30, 60, and 120 minutes after administration. All assessments were conducted in a quiet environment at a temperature of 23-25 degrees Celsius, with a maximum observation time of 5 minutes per trial.

[2] = tested on: Parkinson's disease; experiment: Open field test in rats with reserpine-induced Parkinson's disease; settings: 25 mg/kg, p.o. + Reserpine (4 mg/kg, s.c.); open field; Mean ± SEM, n = 6
Description: as §1
Open filed test—The test was conducted as per protocol described by Saleem et al., Pharmacological Potential of the Standardized Methanolic Extract of Prunus armeniaca L. in the Haloperidol-Induced Parkinsonism Rat Model. Evid Based Complement Alternat Med. 2022:29; 3697522. doi: 10.1155/2022/3697522. This test was conducted to assess the locomotor and exploratory behaviors of the experimental rats. A square-shaped wooden box measuring 100 cm in width, 100 cm in […], and 45 cm in height was constructed using plywood material, painted white, with a black-lined floor divided into 25 blocks. The rats were placed in the center of the field for a duration of 5 minutes and allowed to explore the box freely. The number of squares crossed, both centrally and horizontally, along with the total number of crossings, instances of defecation, freezing behavior, and postures were recorded during this period. Normal animals readily and quickly acclimate to the chamber and try to explore the center area of the squares.

[3] = tested on: Parkinson's disease; experiment: Y-maze test in rats with reserpine-induced Parkinson's disease; settings: 25 mg/kg, p.o. + Reserpine (4 mg/kg, s.c.); Y maze; Mean ± SEM, n = 6
Description: as §1
Y-maze test—In the Y-maze test, spontaneous alterations serve as an indicator of working short-term memory.
The maze consisted of a triangular central area with three equilateral arms labeled A, B, and C, each measuring 35 cm in length, 25 cm in height, and 10 cm in width. During the test, each rat was placed in the central area, facing one of the arms. An entry was scored when all four paws of the rat entered an arm. Spontaneous alterations in behavior were defined as consecutive entries into different arms (e.g., ABC, BCA, or CAB, but not CAC). The maximum number of spontaneous alterations ([…]) and the percentage of spontaneous alterations (actual number of alterations divided by the maximum alterations, multiplied by 100) were calculated for each rat (Kraeuter et al., The Y-Maze for Assessment of Spatial Working and Reference Memory in Mice. Methods Mol Biol. 2019; 1916:105-111).

[4] = tested on: IL-1β; experiment: Inflammatory marker IL-1β (ELISA), AlCl3 Alzheimer's model; settings: 5 mg/kg, p.o. + AlCl3 (100 mg/kg, i.p.); n = 6
Description: (§2) The inflammatory markers Fibrinogen, IL-1β were estimated using ELISA kit (Krishgen Biosystems, India).

[5] = tested on: Alzheimer's disease; experiment: Morris water maze (MWM) test in rats with AlCl3-induced Alzheimer's disease; settings: 5 mg/kg, p.o. + AlCl3 (100 mg/kg, i.p.); MWM at 17th day; Mean ± SEM, n = 6
Procedure: Morris water maze (MWM)—This test was performed as per protocol established by Ishola et al., Protective role of Spondiasmombin leaf and Cola acuminata seed extracts against scopolamine-induced cognitive dysfunction. Alexandria J Med. 2018; 54(1):27-39. MWM is a round water tank “diameter: 110 cm and height: 60 cm” consisting of a white surface and that is filled using opaque water (Temp. 26±2° C.) to a distance (depth) of 30 cm. The MWM tank circle is divided into 4 equal quadrants [North Quadrant 1, East Quadrant 2, West Quadrant 3, and South Quadrant 4]. Further, it consists of a 10 cm diameter platform in a constant position. Index of memory improvement is measured by the Escape Latency Time (ELT)—which is the time the animal takes to find the platform.
The MWM plays an important role in the testing of learning and memory in rodent models of Alzheimer's Disease. It is used to test hippocampal-dependent learning, including acquisition of spatial memory and long-term spatial memory (Bromley-Brits et al., Morris water maze test for learning and memory deficits in Alzheimer's disease model mice, J Vis Exp., 2011 Jul. 20:(53):2920). In this study, learning was impaired in the Alzheimer's group.

[6] = tested on: Alzheimer's disease; experiment: Elevated plus maze (EPM) test in rats with AlCl3-induced Alzheimer's disease; settings: 5 mg/kg, p.o. + AlCl3 (100 mg/kg, i.p.), Mean ± SEM, n = 6
Procedure: Elevated plus maze (EPM)—Elevated plus maze (EPM)—This test was performed as per reported protocol (Bhuvanendran et al., Amelioration of cognitive deficit by Embelin in a Scopolamine-induced Alzheimer's disease-like condition in a rat model. Front Pharmacol. 2018:9(6):1-12 and Biradar et al., (2020) Experimental validation and network pharmacology evaluation to decipher the mechanism of action of Erythrina variegata L. bark against scopolamine-induced memory impairment in rats. Adv Tradit Med. 2020:26:1-4). EPM contains 2 closed and 2 open arms (four arms; equal dimensions of 50×10 cm). These 4 arms connect at central with a 10×10 cm square gap as an initial point. The transfer latency (TL) was recorded via stopwatch by keeping rats independently toward one side of the open arm. The EPM TL cut-off was set to 60 s throughout the study. […] Index of memory improvement is measured as a drop of transfer Latency (TL) by test drug.
The elevated plus maze is a test that is widely used to assess the anti-anxiety effects of test substances. As the test measures open arm activity, an increase in open arm activity (duration and/or entries) reflects anti-anxiety behaviour (Walf et al., The use of the elevated plus maze as an assay of anxiety-related behavior in rodents, Nat Protoc. 2007; 2(2): 322-328). In the present study, inducing Alzheimer's in the animals increased their anxiety which was reduced by the administration on Gingerenone A (Table 3).

[7] = tested on: β-amyloid (1-42); experiment: β-amyloid (1-42) level in plasma (ELISA), AlCl3 Alzheimer's model; settings: 5 mg/kg, p.o. + AlCl3 (100 mg/kg, i.p.); plasma; Mean ± SEM, n = 6
Description: (§3) The levels of Tau, β-amyloid (1-42) and Apolipoprotein E were estimated. using ELISA kit (Krishgen Biosystems, India). All the protein biomarkers of AD were elevated in the AD control group.

[8] = tested on: Apolipoprotein E; experiment: Apolipoprotein E level in plasma (ELISA), AlCl3 Alzheimer's model; settings: 5 mg/kg, p.o. + AlCl3 (100 mg/kg, i.p.); plasma; Mean ± SEM, n = 6
Description: as §3

[9] = tested on: Fibrinogen; experiment: Inflammatory marker fibrinogen (ELISA), AlCl3 Alzheimer's model; settings: 5 mg/kg, p.o. + AlCl3 (100 mg/kg, i.p.); Mean ± SEM, n = 6
Description: as §2

**Q.** With C[C@@](Cc1ccc(O)c(O)c1)(NN)C(=O)O [Carbidopa, reference compound] as the compound, how does the “catalepsy score at 30 min” value ([1]; 30 min) read?
**A.** 1.52 ± 0.42

**Q.** And the “catalepsy score at 60 min” value ([1]; 60 min)?
**A.** 1.60 ± 0.70

**Q.** What about the “catalepsy score at 120 min” value ([1]; 120 min) of the same compound?
**A.** 1.45 ± 0.70

**Q.** And the Freezing [2]?
**A.** 9.63 ± 0.60 s

**Q.** And the “Number of central explorations” value [2]?
**A.** 20.25 ± 1.03

**Q.** What about the “Number of squares crossed” value [2] of the same compound?
**A.** 31.80 ± 3.18

**Q.** And the “No of arm entries” value [3]?
**A.** 12.58 ± 1.04

**Q.** What about the “Spontaneous alterations (%)” value [3] of the same compound?
**A.** 27.31 ± 1.56 %

**Q.** For COc1cc2c(cc1OC)C(=O)C(CC1CCN(Cc3ccccc3)CC1)C2 (stereo not drawn) [Donepezil, reference compound], which IL-1β [4] is on record?
**A.** 62.16** pg/ml

**Q.** What about the “Escape Latency Time” value [5] of the same compound?
**A.** 26.96 ± 2.58 s

**Q.** And the “EPM at 16th day Transfer Latency” value ([6]; 16th day)?
**A.** 18.57 ± 0.68 s

**Q.** What about the “EPM at 17th day Transfer Latency” value ([6]; 17th day) of the same compound?
**A.** 18.22 ± 0.92 s

**Q.** And the β-amyloid [7]?
**A.** 8.02 ± 0.043 pg/mL

**Q.** What about the “Apolipoprotein E” value [8] of the same compound?
**A.** 6.96 ± 0.065 ng/mL

**Q.** What about the Fibrinogen [9] of the same compound?
**A.** 16.77 ± 0.053 ng/mL
